# Assay results taken from patent publication US10765654B2, “Methods and compounds for treating cancer” (University of Vermont and State Agricultural College, priority 2011, dated 2020).
# Tests used:
# [1] = test system: OG35 oligodendroglioma GSCs; assay: Orthotopic graft in athymic mice, survival and bioluminescent imaging; type: in vivo; settings: OG35 engrafted mice
# Procedure: (§1) Cells (2,500 cells in 4 μl) were injected into the right striatum (1 mm anterior, 1.5 mm lateral to bregma, 3.5 mm deep) of adult athymic mice (8-week-old, 25-28 g). […]
# (§2) For in vivo imaging, mice were injected i.p. with 150 mg/kg D-luciferin potassium salt 5 minutes prior to imaging under 1.5% inhaled isoflurane. Peak efflux was determined from an average of 15 bioluminescent acquisitions, with 1 min inter-acquisition intervals, using the auto-exposure setting. Total photon efflux was determined by drawing regions of interest over the emitted region and setting thresholds for each mouse to maximize the number of pixels encircled using Living Image acquisition and analysis software (Version 3.0.3.5, Caliper Life Sciences, Hopkinton, Mass.). […]
# (§3) Tumor bioluminescence (rate of flux change over time) and tumor volume were compared using a Mann-Whitney test. Survival was analyzed using Kaplan-Meier curves [Kaplan, EL and P Meier. (1958) J Am Stat Assoc 53:457-481] and comparisons between groups were analyzed with a log-rank test [Peto, R and J Peto. […]
# [2] = test system: OG33 oligodendroglioma stem cells; assay: Growth dynamics, unbiased trypan blue exclusion based cytometry; type: cell-based, human; settings: 0.25% GTA, 5 days of treatment
# Procedure: (§4) Growth dynamics were assessed using unbiased trypan blue exclusion based cytometry. Cells were plated (at 10,000 cells per well of a 24-well plate) directly in the absence or presence of 0.25% GTA. After 1, 3, and 5 days of treatment, cells were typsinized, collected via centrifugation, and counted according to the manufacturer's instructions (Countess Automated Cell Counter; Invitrogen Life Technologies; Carlsbad, Calif.).
# [3] = test system: OG35 oligodendroglioma stem cells; assay: as above; type: cell-based, human; settings: 0.25% GTA, 5 days of treatment
# Procedure: as §4
# [4] = test system: murine neural stem cells (NSCs); assay: Cell cycle profile by propidium iodide staining and flow cytometry; type: cell-based; settings: 0.25% GTA in SCM for 24 hours
# Procedure: Cell cycle profiles were visualized by propidium iodide (PI) staining as previously described (Perez-Martinez & Jaworski (2005) J Neurosci 25:4917-29). OG35, OG33 and mouse neural stem cells were grown in stem cell medium (SCM; DMEM/F12, B27, 20 ng/ml ea bFGF & EGF) while the oligodendrocyte progenitor cell line, Oli-neu (Jung et al. (1995) Eur J Neurosci 7:1245-65) was grown in Sato's medium (DMEM supplemented with 100 μg/ml apotransferrin, 5 μg/ml insulin, 60 nM triiodothyronine, 30 nM sodium selenite, 100 μM putrescine, 1% horse serum, and 25 μg/ml G418). […] after 0.25% (v/v) GTA treatment, cells were trypsinized, recovered by centrifugation, re-suspended (10^6 cells/ml) in a low-salt PI solution ([…] polyethylene glycol PEG 8000, […], 180 U/ml RNase A, 0.1% Triton X-100, and 4 mM sodium citrate), and incubated at 37° C. for 20 minutes. After addition of an equal volume of high-salt PI solution ([…] polyethylene glycol PEG 8000, […], 180 U/ml RNase A, 0.1% Triton X-100, and 400 mM NaCl) and incubation at 4° C. for 1 hour, cell cycle profiles were recorded by flow cytometry (BD LSR 11 Flow Cytometer, BD Biosciences; Franklin Lakes, N.J.).
# GBM12 astrocytoma GSCs = assay: Orthotopic graft in athymic mice, survival; type: in vivo; settings: GBM 12 engrafted mice; GTA alone 5.8 g/kg daily; p<0.0001
# Procedure: as §1, §2, §3
structure (smiles),measurement,setting,value
"CC(=O)OCC(COC(C)=O)OC(C)=O [GTA, glyceryltriacetate]",Survival,[1]; GTA alone 5.8 g/kg intragastrically daily,did not significantly increase survival
same,Time to tumor regrowth after termination of TMZ treatment,"[1]; GTA with TMZ, bioluminescent imaging",significantly delayed
same,Cell number,[2],significantly decreased cell number
same,Cell number,[3],significantly decreased cell number
same,Cell cycle arrest,[4],no effect
same,Survival relative to vehicle treated mice,GBM12 astrocytoma GSCs,increased survival relative to vehicle treated mice
